One compound from patent publication US20100144865A1, “COMPOUND FEED FOR AQUACULTURE” (priority 2007, published 2010) can be followed below.

The data set concerns Atlantic salmon (Salmo salar L.) hepatocytes. The format is in vitro ADME. As for the experimental part: The isolated hepatocytes were incubated with 35 nmol, 2.5 μCi of [1-^14C] 18:3 (n-3) as well as non radiolabeled 18:3 (n-3), final concentration 7 μM, in 5 ml of L 15 culture medium without FBS. The radio labeled FA was added to the medium as potassium salt bound to BSA. To each experimental flask (4 radiolabeled and 7 with non-radiolabeled 18:3 (n-3)), DMSO (7.4 μl/5 ml) with sesamin (final concentration 0.05 mM) was added and to each control flasks (4 radiolabeled and 7 with non-radiolabeled 18:3 (n-3)), only DMSO (7.4 μl/5 ml) was added, in another two flasks sesamin but no FA was added. The cells were incubated at 12° C. for 48 h. The radiolabeled experiment flasks with and without sesamin (4 each) were washed and harvested in PBS for further analysis of β-oxidation and radiolabeled lipid classes and radiolabeled cellular fatty acids. The cells in the two flasks with no FA substrate added were denaturated after the incubation and thereafter added radiolabeled substrate in order to be used as a negative control for the ASP measurements and HPLC analyses. In the non-labeled study, control and sesamin flask (4 each) were washed in PBS prior to isolation of mRNA according to the protocol RNeasy® Mini Kit for gene expression analysis and 3 flasks of each control and sesamin were washed and harvested in PSB for fatty acid and sesamin analysis.

Consider `c1cc2c(cc1C1OCC3C(c4ccc5c(c4)OCO5)OCC13)OCO2` (stereo not drawn) [episesamin, 2,6-bis-(3,4-methylenedioxyphenyl)-trans-3,7-dioxabicyclo[3.3.0]octane], for which the “bioavailability in hepatocytes compared with sesamin” value was “higher”.
